Assay results as given in article PMC11109052, “Metabolism characterization and toxicity of N-hydap, a marine candidate drug for lung cancer therapy by LC–MS method” (Natural Products and Bioprospecting, 2024).

What was measured:
[1] = system: Cyp2e1; assay: Real-time PCR mRNA level after 7 days gavage: Cyp2e1; format: in vivo, mice; design: key to CYP2E1 mNA expression: ↑: up-regulation; ↓: down-regulation; –: no change; conditions: for mRNA levels of Cyp2e1: mice, 2, 5, 10 mg/kg p.o. 7 days
Description: (§1) Mice were randomly divided into four groups, with eight animals in each group. The mice received oral pretreatment with N-hydap for 7 days at doses of 2, 5, and 10 mg/kg/day, which were considered as the low dose, medium dose, and high dose, respectively. Correspondingly, the control group received PBS. On the 8th day, the liver and kidneys were removed, and organs from eight mice per group were combined to prepare MLMs and MKMs using the detailed procedures above. Subsequently, we determined the activity of CYP and UGT enzymes by specific substrate metabolized with MLMs (0.5 mg/mL) and MKMs (0.2 mg/mL) in vitro. Specifically, the following selective substrates were used for the respective enzymes: PH (1 μM) for CYP1A2, DIC (1 μM) for CYP2C9, MP (90 μM) for CYP2C19, DM (1 μM) for CYP2D6, CZX (10 μM) for CYP2E1, Tes (1 μM) for CYP3A4, SN38 (1 μM) for UGT1A1, CACD (100 μM) for UGT1A3, Sero (20 μM) for UGT1A6, and Prop (1 μM) for UGT1A9. All substrates were dissolved in methanol or DMSO. The incubation procedure was carried out as mentioned above, and the reaction was terminated with VER (20 ng/mL) in ESI+ mode and CLP (200 ng/mL) in ESI− mode. In the ex vivo experiments, the activity of enzymes was measured by quantifying the production of various metabolites (nM/mg protein/min). The metabolites and their corresponding enzymes are as follows: APAP from PH, 4-OH-DIC from DIC, 4-OH-MP from MP, DXO from DM, 6-OH-CZX from CZX, 6-OH-Tes from Tes, SN38-G from SN38, CACD-G from CACD, Sero-G from Sero, Prop-G from Prop. The measurements were performed using multiple reaction monitoring (MRM) transitions, which are specific mass spectrometry transitions used for quantification. The optimized parameters for each metabolite, such as declustering potential and collision energy, were described in Supplementary Table 1. All experiments were conducted in triplicate, to ensure accuracy and reproducibility.
Total RNA from liver and kidney samples taken after 7 days of N-hydap gavage was extracted using the Animal Total RNA Isolation Kit (Foregene, Chengdu, Sichuan, China) following the manufacturer’s instructions. The concentrations of total RNA were determined by a nucleic acid concentration tester at 260/280 nm. A HiScript III RT SuperMix for qPCR (+ gDNA wiper) (Vazyme, Nanjing, Jiangsu, China) was used to measure the concentration of the synthesized cDNA. ChamQ SYBR qPCR Master Mix (Vazyme, Nanjing, Jiangsu, China) and detection were performed using a Light Cycler 480 II (ROCHE, Basel, Switzerland). Real-time PCR was used to analyze the relative mRNA levels of Cyp1a2, Cyp2b10, Cyp2c39, Cyp2d22, Cyp2e1, Cyp3a11, Ugt1a1, Ugt1a6a and Ugt1a9 (human homologs: CYP1A2, CYP2B6, CYP2C19, CYP2D6, CYP2E1, CYP3A4, UGT1A1, UGT1A6, and UGT1A9) in the liver, kidneys, and intestines. […]

[2] = system: CYP2B6; assay: Western blot protein level after 7 days gavage: CYP2B6; format: in vivo; conditions: mice, p.o. 7 days; liver
Description: Mice were randomly divided into four groups, with eight animals in each group. The mice received oral pretreatment with N-hydap for 7 days at doses of 2, 5, and 10 mg/kg/day, which were considered as the low dose, medium dose, and high dose, respectively. Correspondingly, the control group received PBS. On the 8th day, the liver and kidneys were removed, and organs from eight mice per group were combined to prepare MLMs and MKMs using the detailed procedures above. Subsequently, we determined the activity of CYP and UGT enzymes by specific substrate metabolized with MLMs (0.5 mg/mL) and MKMs (0.2 mg/mL) in vitro. […] In the ex vivo experiments, the activity of enzymes was measured by quantifying the production of various metabolites (nM/mg protein/min). […] The measurements were performed using multiple reaction monitoring (MRM) transitions, which are specific mass spectrometry transitions used for quantification. […]
After 7 days of N-hydap gavage, the liver and kidney tissues were lysed using RIPA buffer supplemented with a 1% protease inhibitor cocktail. […] Western blot signals were detected using an ECL chemiluminescence detection agent. The relative intensity of each protein band was scanned and quantified using Image J software.

[3] = system: Ugt1a6a; assay: Real-time PCR mRNA level after 7 days gavage: Ugt1a6a (human homolog UGT1A6); format: in vivo, mice; design: key to UGT1A6 mNA expression: ↑: up-regulation; ↓: down-regulation; –: no change
Description: as §1, with “The optimized parameters for each metabolite, such as declustering potential and collision energy, were described in Supplementary Table 1. All experiments were conducted in triplicate, to ensure accuracy and reproducibility.” left out
(§2) Total RNA from liver and kidney samples taken after 7 days of N-hydap gavage was extracted using the Animal Total RNA Isolation Kit (Foregene, Chengdu, Sichuan, China) following the manufacturer’s instructions. The concentrations of total RNA were determined by a nucleic acid concentration tester at 260/280 nm. […]

[4] = system: recombinant human CYP enzymes (CYP1A2, CYP2B6, CYP2C9, CYP2C19, CYP2D6, CYP3A4, CYP4A11 and CYP4F2); assay: Incubation with 8 recombinant human CYP enzymes; format: in vitro ADME; conditions: N-hydap 2.5 μM; enzyme concentrations of 2 and 4 μg/mL; all recombinant CYPs
Description: (§3) Incubation of N-hydap (2.5 μM) with eight recombinant human CYP enzymes (CYP1A2, CYP2B6, CYP2C9, CYP2C19, CYP2D6, CYP3A4, CYP4A11 and CYP4F2) at three enzyme concentrations (2, 4, and 20 μg/mL) was conducted following the same procedure as described above for microsomes. Subsequently, incubation with N-hydap (1, 2.5, and 6 μM) and twelve recombinant human UGT isoforms (UGT1A1, UGT1A3, UGT1A4, UGT1A6, UGT1A7, UGT1A8, UGT1A9, UGT1A10, UGT2B4, UGT2B7, UGT2B15 and UGT2B17) was performed, with the enzyme concentration used at 2 μg/mL. All reactions were carried out in triplicate.

[5] = target: T1, recombinant human CYP enzymes (CYP1A2, CYP2B6, CYP2C9, CYP2C19, CYP2D6, CYP3A4, CYP4A11 and CYP4F2) (Homo sapiens, UniProt P11712); assay: Incubation with 8 recombinant human CYP enzymes; format: in vitro ADME; conditions: Table 4 experimental column
T1 construct: purchased Cypex (Scotland, UK)
Description: as §3

[6] = target: T2, recombinant human CYP enzymes (CYP1A2, CYP2B6, CYP2C9, CYP2C19, CYP2D6, CYP3A4, CYP4A11 and CYP4F2) (Homo sapiens, UniProt P08684); assay: Incubation with 8 recombinant human CYP enzymes; format: in vitro ADME; conditions: Table 4 experimental column
T2 construct: purchased Cypex (Scotland, UK)
Description: as §3

[7] = target: T3, recombinant human CYP enzymes (CYP1A2, CYP2B6, CYP2C9, CYP2C19, CYP2D6, CYP3A4, CYP4A11 and CYP4F2) (Homo sapiens, UniProt P05177); assay: Incubation with 8 recombinant human CYP enzymes; format: in vitro ADME; conditions: Table 4 experimental column
T3 construct: purchased Cypex (Scotland, UK)
Description: as §3

[8] = system: Cyp2c39; assay: Real-time PCR mRNA level after 7 days gavage: Cyp2c39 (human homolog CYP2C19); format: in vivo, mice; design: key to CYP2C19 mNA expression: ↑: up-regulation; ↓: down-regulation; –: no change
Description: as §1, with “The optimized parameters for each metabolite, such as declustering potential and collision energy, were described in Supplementary Table 1. All experiments were conducted in triplicate, to ensure accuracy and reproducibility.” left out
as §2

[9] = mice, 2, 5, 10 mg/kg p.o. 7 days, liver and kidneys

T2 sequence (P08684 whole entry): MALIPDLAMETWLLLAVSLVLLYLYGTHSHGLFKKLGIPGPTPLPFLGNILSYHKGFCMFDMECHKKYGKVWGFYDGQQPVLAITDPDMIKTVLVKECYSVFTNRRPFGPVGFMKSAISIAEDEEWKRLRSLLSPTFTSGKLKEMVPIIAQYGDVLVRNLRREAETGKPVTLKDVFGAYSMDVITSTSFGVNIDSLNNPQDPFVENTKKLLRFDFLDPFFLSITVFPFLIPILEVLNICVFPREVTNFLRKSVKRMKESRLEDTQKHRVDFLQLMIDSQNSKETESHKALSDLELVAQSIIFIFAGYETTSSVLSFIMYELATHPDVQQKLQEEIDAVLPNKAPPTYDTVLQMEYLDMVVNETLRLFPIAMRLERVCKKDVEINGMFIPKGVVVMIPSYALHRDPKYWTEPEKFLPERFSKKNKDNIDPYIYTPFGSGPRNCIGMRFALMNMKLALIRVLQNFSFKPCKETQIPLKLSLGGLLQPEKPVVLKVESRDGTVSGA
T3 sequence (P05177 whole entry): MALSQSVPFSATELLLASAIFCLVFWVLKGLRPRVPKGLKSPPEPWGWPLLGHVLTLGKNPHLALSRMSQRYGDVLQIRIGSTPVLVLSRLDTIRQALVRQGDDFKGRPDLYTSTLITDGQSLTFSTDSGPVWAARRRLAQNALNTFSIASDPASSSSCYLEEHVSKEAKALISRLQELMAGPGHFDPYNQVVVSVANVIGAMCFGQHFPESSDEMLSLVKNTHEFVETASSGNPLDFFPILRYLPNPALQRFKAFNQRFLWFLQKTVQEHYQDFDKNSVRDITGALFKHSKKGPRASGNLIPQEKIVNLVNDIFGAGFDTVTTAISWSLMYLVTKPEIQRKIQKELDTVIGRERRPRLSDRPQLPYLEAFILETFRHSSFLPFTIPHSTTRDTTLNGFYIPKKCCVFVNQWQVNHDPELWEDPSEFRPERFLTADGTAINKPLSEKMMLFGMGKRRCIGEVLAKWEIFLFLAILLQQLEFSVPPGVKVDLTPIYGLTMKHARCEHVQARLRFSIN
T1 sequence (P11712 whole entry): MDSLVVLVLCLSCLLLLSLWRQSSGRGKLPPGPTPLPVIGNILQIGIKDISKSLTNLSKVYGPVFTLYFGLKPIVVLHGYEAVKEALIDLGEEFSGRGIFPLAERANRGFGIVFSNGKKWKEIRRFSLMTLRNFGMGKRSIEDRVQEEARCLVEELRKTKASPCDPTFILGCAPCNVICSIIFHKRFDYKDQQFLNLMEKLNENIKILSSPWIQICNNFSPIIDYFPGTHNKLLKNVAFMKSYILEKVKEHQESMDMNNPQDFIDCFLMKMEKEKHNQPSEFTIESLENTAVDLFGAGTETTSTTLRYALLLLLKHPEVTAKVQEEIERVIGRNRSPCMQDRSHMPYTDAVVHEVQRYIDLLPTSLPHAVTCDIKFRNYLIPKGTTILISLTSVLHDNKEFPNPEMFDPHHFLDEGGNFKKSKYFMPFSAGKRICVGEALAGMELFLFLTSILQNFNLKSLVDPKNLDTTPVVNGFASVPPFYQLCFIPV

CC1CCC2C(C=CC(C)C2C(=O)c2c(O)c(C3(O)CCC(O)C4OC43)cn(O)c2=O)C1 (stereo not drawn) [N-hydap, N-Hydroxyapiosporamide]
CYP2E1 mNA expression ([1]; Kidney): ↑
CYP2E1 mNA expression ([1]; Liver): –
mRNA levels of Cyp2e1 ([1]; intestines): slight reduction
mRNA levels of Cyp2e1 ([1]; kidney): modest increase
increase of protein levels of CYP2B6 [2]: 92%
UGT1A6 mNA expression ([3]; Kidney): ↑
UGT1A6 mNA expression ([3]; Liver): ↑
mRNA levels of Ugt1a6a [3, 9]: modest increase
prototype elimination rate [4]: less than 25%
CYP2C9 substrate, experimental results [5]: Yes
CYP3A4 substrate, experimental results [6]: Yes
CYP1A2 substrate, experimental results [7]: Yes
CYP2C19 mNA expression ([8]; Kidney): ↓
CYP2C19 mNA expression ([8]; Liver): ↓
mRNA levels of Cyp2c39 [8, 9]: slight reduction
